Paper PMC7068222, “Inhibition of Tyrosinase by Mercury Chloride: Spectroscopic and Docking Studies” (Frontiers in Pharmacology, 2020)
Read-outs that look alike come from different tables or passages of the source.

Assays:
[1] = tested on: tyrosinase (monophenolase and diphenolase activity) in the presence of HgCl2; experiment: Effect of premixing amino acids with HgCl2 on tyrosinase inhibition (protection of enzyme activity); assay type: biochemical, mushroom
Procedure: According to the results of docking study, we furtherly checked the interactions between HgCl2 and amino acid. We assumed that if HgCl2 indeed binds to the amino acid residues of the enzyme, such as His, Val, Glu, and Ala, premixing the amino acid with HgCl2 would affect the inhibitory effects. Thus, the monophenolase and diphenolase activity of tyrosinase both were determined by adding the mixture of HgCl2 and amino acid. The mixture was prepared just before use by adding an aliquot of 200 μL HgCl2 solution to the equal volume of amino acid solution, and which was allowed to react for 10 mins at room temperature. […] In brief, 5 and 10 mmol/L solutions of His, HgCl2 were prepared beforehand, and the mixture was produced by mixing the His and HgCl2 solutions (10 mmol/L) in the volume ratio of 1:1. The spectra of the samples at the wavelengths between 200 and 800 nm were scanned by using UV spectrophotometer (UV 2550, SHIMADZU).The experiment was repeated three times.

immobilized tyrosinase = target: T1, immobilized tyrosinase (Agaricus bisporus, UniProt C7FF04); assay type: biochemical, mushroom
T1 construct: purchased Sigma-Aldrich
Procedure: Experiments were conducted to confirm the inhibitory mechanism of HgCl2 on tyrosinase furtherly by using immobilized tyrosinase. In brief, we added 200 µL of diluted tyrosinase (2500 U/mL) to each well of a 24-well polystyrene plate and then covered the plate and incubated it at 4°C overnight to produce immobilized tyrosinase. The plate was brought to room temperature, and we thoroughly decanted the solution from wells and washed the wells two times with PBS to remove the unfixed enzyme. We added 3 mL of inhibitor solution to each well and incubated them at room temperature for 30 mins to assure the fully reaction between the inhibitor and the enzyme, discarding the liquid following by washing the wells two times with PBS to remove the excess inhibitor. Then, 3 mL of PBS was added to each well, and they stood for 10 mins to make the dissociation of inhibitor-tyrosinase complex. WE thoroughly decanted the solution from wells to remove the dissociated inhibitor (the procedure was repeated three times). Finally, 3 mL of substrate (dopa) was added to each well and react at room temperature for 30 mins to test the residual activity of tyrosinase.

[2] = target: T2, mushroom tyrosinase (monophenolase activity) (Agaricus bisporus, UniProt C7FF04); assay type: biochemical
T2 construct: purchased Sigma-Aldrich
Procedure: The method was modified based on the previous description ([Chen et al., 2016]). […] The appropriate blanks (containing both tyrosine and HgCl2 but without tyrosinase) were tested and subtracted to correct the absorbance.

tyrosinase = target: T3, tyrosinase (Agaricus bisporus, UniProt C7FF04); experiment: Intrinsic fluorescence quenching of tyrosinase; assay type: binding, mushroom; details: for Kq (quenching rate constant): Kq = Ksv/τ0, τ0 = 10^-8 s
T3 construct: purchased Sigma-Aldrich
Procedure: The fluorescence emission spectra were obtained using Spectrofluorometer FS5 (Edinburgh Instruments, England) equipped with a 150 W xenon lamp and a thermostat bath. We added a 2.0 mL aliquot of tyrosinase solution (400 U/mL) to the quartz cuvette (1 cm path length) and gradually added 2 mmol/L solution of HgCl2 to give concentrations ranged from 0 to 400 μmol/L. After five-minute incubation periods, fluorescence in the range of 290–500 nm was measured while the excitation wavelength was fixed at 280 nm. All the fluorescence data collected from these experiments were corrected for absorption of excitation light and re-absorption of emitted light according to the following equation: ([Wang et al., 2015])
where F c and F m represent the corrected and measured fluorescence, respectively. A1 and A2 are the absorbance of HgCl2 at excitation and emission wavelengths, respectively.
To identify the interaction mechanism of HgCl2 on tyrosinase, the data of fluorescence quenching were presented in the form of a Stern-Volmer plot, using the following equation:
(4) F0/F=1+Kqτ0[Q]=1+Ksv[Q]
where, F 0 and F represent the steady-state fluorescence intensities in the absence and presence of HgCl2 (quencher), respectively, [Q] denotes the concentration of HgCl2, K q is the quenching rate constant of the biomolecule (K q = K sv/τ0), K sv is the Stern–Volmer dynamic quenching constant, and τ0 is the average lifetime of the fluorophore in the absence of quencher (τ0 = 10^-8 s). The value of K sv determined by the linear regression plot of F0/F vs. [Q] at 298 and 304 K were (2.14 ± 0.05) × 10^4 and 1.83 ± 0.03 × 10^4 L/mol, respectively. […] K sv values decreased gradually with the increase of the temperatures, which manifested that the fluorescence quenching of tyrosinase by HgCl2 was a static quenching process ([Lin et al., 2018]).
For static quenching interactions, if there are similar and independent sites in biological molecules, the apparent binding constants (K a) and the number of binding sites (n) can be obtained from the following equation:
(5) logF0−F/F=logKa+nlog[Q]

[3] = target: T4, mushroom tyrosinase (diphenolase activity) (Agaricus bisporus, UniProt C7FF04); assay type: biochemical; details: substrate dopa 0.5 mmol/L, tyrosinase 13.33 U/mL, pH 6.8, 305 K
Target sequence in this assay (C7FF04 1-392): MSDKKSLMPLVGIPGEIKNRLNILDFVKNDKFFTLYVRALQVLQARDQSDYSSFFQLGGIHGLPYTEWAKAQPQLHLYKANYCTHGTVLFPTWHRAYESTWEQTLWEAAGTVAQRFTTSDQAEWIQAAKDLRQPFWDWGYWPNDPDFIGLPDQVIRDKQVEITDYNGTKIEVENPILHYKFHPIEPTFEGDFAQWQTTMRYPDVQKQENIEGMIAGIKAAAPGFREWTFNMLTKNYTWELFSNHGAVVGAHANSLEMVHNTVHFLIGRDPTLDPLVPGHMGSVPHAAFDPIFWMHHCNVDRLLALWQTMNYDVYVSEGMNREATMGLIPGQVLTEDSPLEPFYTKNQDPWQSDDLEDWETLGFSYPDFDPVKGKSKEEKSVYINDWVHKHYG
Procedure: The assays were carried out by using 3 mL of reaction system containing 0.5 mmol/L substrate (dopa) in 50 mmol/L PBS (pH = 6.8) at 305 K. The final concentration of tyrosinase was 13.33 U/mL. […] Relative enzymatic activity (%) = (A1-A3)/A2×100%. The experiment was repeated three times. The IC50 value was calculated as the concentration (leading to achieve 50% inhibition) according to the equation, which is obtained by curve fitting of the enzyme activity versus the concentrations of inhibitor.

[4] = target: T4, mushroom tyrosinase (diphenolase activity); experiment: Kinetic analysis of inhibition mechanism and type (enzyme-concentration plots, Lineweaver-Burk plot, secondary plot); assay type: biochemical; parameters: purchased Sigma-Aldrich
Text: (1) 1/ν=Km/Vmax(1+[I]/Ki)1/[S]+1+[I]/Ki/Vmax and a secondary plot is presented below
(2) In.=[I]/KiVmax+1/Vmax where ν is velocity of the enzyme reaction calculated by a change in absorbance at the wavelength of 475 nm per minute in the absence and presence of HgCl2. K m and K i are the Michaelis–Menten constant and inhibition constant, respectively. The values of K m can be calculated from the equation (1). [I] and [S] are the concentrations of inhibitor and substrate, respectively. In. is the intercept value of the Lineweaver–Burk curve. K i should be calculated by the secondary plot of In. vs. [I].
The relationship between enzyme activity (expressed as the rate of the oxidation reaction) and its concentration (6.67, 13.33, 20, 26.67, and 33.33 U/mL) in the presence of different concentrations of HgCl2 (0, 4.17, 16.67, 33.33, and 66.67 μmol/L) was investigated.
Target sequence in this assay (C7FF04 1-392 limits assumed): as the sequence (C7FF04 1-392) above

[5] = from plot of log[(F0-F)/F] vs log[Q]

T3 sequence (C7FF04 1-392): as above
T1 sequence (C7FF04 1-392 limits assumed): as the sequence (C7FF04 1-392) above
T2 sequence (C7FF04 1-392 limits assumed): as the sequence (C7FF04 1-392) above

## CC(C)[C@H](N)C(=O)O [Val, valine]
[1]; amino acid premixed with HgCl2
  effect on protecting the monophenolase activity in the presence of HgCl2: no effects

## N[C@@H](Cc1c[nH]cn1)C(=O)O [His, Histidine]
[1]; His 10.42 μmol/L
  protecting capability on diphenolase activity in the presence of HgCl2: 48.83 ± 1.89%
[1]; His 666.67 μmol/L
  protecting capability on diphenolase activity in the presence of HgCl2: 83.43 ± 2.56%
[1]; amino acid premixed with HgCl2
  effect on protecting the diphenolase activity in the presence of HgCl2: significant effect
  effect on protecting the monophenolase activity in the presence of HgCl2: protect the monophenolase activity

## CCO [95% ethanol, ethanol, reference compound]
Immobilized tyrosinase
  Relative activity (%) of immobilized tyrosinase after inhibitor treatment and washing: 3.34%

## N[C@@H](CCC(=O)O)C(=O)O [Glu, glutamate]
[1]; amino acid premixed with HgCl2
  effect on protecting the monophenolase activity in the presence of HgCl2: no effects

## C[C@H](N)C(=O)O [Ala, alanine]
[1]; amino acid premixed with HgCl2
  effect on protecting the monophenolase activity in the presence of HgCl2: no effects

## [Cl][Hg][Cl] [HgCl2, Mercuric chloride]
[2]; prolonged with increasing inhibitor concentration, without inhibitor 1.44 min (kojic acid series), 2.00 min (HgCl2 series)
  lag time of monophenolase reaction at highest inhibitor concentration: 13.4 min
[2]; substrate tyrosine 0.5 mmol/L, tyrosinase 33.33 U/mL, pH 6.8, 305 K
  IC50: 30 µM
tyrosinase; 298 K
  Ksv (Stern-Volmer quenching constant): (2.14 ± 0.05) × 10^4 L/mol
  Kq (quenching rate constant): (2.14 ± 0.05) × 10^12 L/mol/s
tyrosinase; 304 K
  Ksv (Stern-Volmer quenching constant): 1.83 ± 0.03 × 10^4 L/mol
  Kq (quenching rate constant): (1.83 ± 0.03) × 10^12 L/mol/s
tyrosinase; [5]
  Ka (apparent binding constant): (2.87 ± 0.02) × 10^4 L/mol
  n (number of binding sites): 0.96 ± 0.01
[3]
  IC50: 77.9 µM
[4]; diphenolase activity, tyrosinase 13.33 U/mL
  inhibition type (Lineweaver-Burk): non-competitive inhibition
[4]; diphenolase, secondary plot of intercept vs inhibitor concentration, read-out: Ki (inhibition constant)
  Ki: 29.4 µM
[4]; plots of activity vs enzyme concentration, HgCl2 0-66.67 μmol/L
  inhibition mechanism (reversibility): irreversible
Immobilized tyrosinase; kojic acid and HgCl2 666.67 μmol/L, 30 min incubation, PBS treatment = 100%, substrate dopa
  Relative activity (%) of immobilized tyrosinase after inhibitor treatment and washing: 28.32%
